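Growth conditions: 96-well plates. Treatment: test compound, 48 hours, 5 concentrations. Analysis: linear interpolation between bracketing concentrations; unreached endpoints set to highest concentration. GI50: concentration for 50% inhibition of growth. TGI: total growth inhibition.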
Assays:
Assay in all cases: NCI-60 cell line screen, 48 h
[1] = test system: MOLT-4 leukemia
[2] = test system: BT-549 breast
[3] = test system: T-47D breast
[4] = test system: PC-3 prostate
[5] = test system: TK-10 renal
[6] = test system: A549 NSCLC
[7] = test system: NCI-H23 lung
[8] = test system: HCT-116 colon
[9] = test system: HCT-15 colon
[10] = test system: MDA-MB-435
[11] = test system: SF-539 CNS
[12] = test system: SK-OV-3 ovarian
[13] = test system: OVCAR-8 ovarian
[14] = test system: CCRF-CEM leukemia
[15] = test system: U251 CNS
[16] = test system: COLO 205 colon
[17] = test system: M14 melanoma
[18] = test system: IGROV1 ovarian
[19] = test system: SF-295 CNS
[20] = test system: OVCAR-5 ovarian
[21] = test system: SF-268 CNS
[22] = test system: OVCAR-3 ovarian
[23] = test system: RPMI-8226 leukemia
[24] = test system: UO-31 renal
[25] = test system: HCC-2998 colon
[26] = test system: RXF 393 renal
[27] = test system: SN12C renal
[28] = test system: ACHN renal
[29] = test system: MDA-MB-468 breast
[30] = test system: NCI-H460 lung
[31] = test system: SK-MEL-28 melanoma
[32] = test system: NCI-H226 lung
[33] = test system: KM12 colon
[34] = test system: UACC-62 melanoma
[35] = test system: SK-MEL-2 melanoma
[36] = test system: OVCAR-4 ovarian
[37] = test system: HT29 colon
[38] = test system: UACC-257 melanoma
[39] = test system: SW-620 colon
[40] = test system: MALME-3M melanoma
[41] = test system: HOP-92 NSCLC
[42] = test system: DU-145 prostate
[43] = test system: NCI-H522 lung
[44] = test system: SK-MEL-5 melanoma
[45] = test system: SNB-19 CNS
[46] = test system: CAKI-1 renal
[47] = test system: K-562 leukemia
[48] = test system: 786-0 renal
[49] = test system: HOP-62 NSCLC
[50] = test system: LOX IMVI melanoma
[51] = test system: NCI/ADR-RES ovarian
[52] = test system: A498 renal
[53] = test system: HS 578T breast
[54] = test system: EKVX NSCLC
[55] = test system: MCF7 breast
[56] = test system: MDA-MB-231 breast

Structure (SMILES): Cn1cc(-c2cc3nc(-c4cn(C)c5ncccc45)cc(N)n3n2)c2cc(Cl)ccc21
- GI50 [1]: 2.02 µM
- TGI [1]: 5.11 µM
- GI50 [2]: 1.59 µM
- TGI [2]: 3.09 µM
- GI50 [3]: 1.8 µM
- TGI [3]: 4.04 µM
- GI50 [4]: 2.21 µM
- TGI [4]: 7.6 µM
- GI50 [5]: 1.91 µM
- TGI [5]: 6.91 µM
- GI50 [6]: 2.87 µM
- TGI [6]: 12 µM
- GI50 [7]: 2.32 µM
- TGI [7]: 6.47 µM
- GI50 [8]: 1.62 µM
- TGI [8]: 2.98 µM
- GI50 [9]: 1.89 µM
- TGI [9]: 4.36 µM
- GI50 [10]: 1.71 µM
- TGI [10]: 3.29 µM
- GI50 [11]: 1.73 µM
- TGI [11]: 3.15 µM
- GI50 [12]: 2.02 µM
- TGI [12]: 4.08 µM
- GI50 [13]: 2.13 µM
- TGI [13]: 4.82 µM
- GI50 [14]: 2.58 µM
- TGI [14]: > 100 µM
- GI50 [15]: 2.18 µM
- TGI [15]: 5.03 µM
- GI50 [16]: 1.77 µM
- TGI [16]: 3.24 µM
- GI50 [17]: 1.67 µM
- TGI [17]: 3.14 µM
- GI50 [18]: 1.87 µM
- TGI [18]: 3.49 µM
- GI50 [19]: 1.77 µM
- TGI [19]: 3.41 µM
- GI50 [20]: 1.85 µM
- TGI [20]: 4.48 µM
- GI50 [21]: 2.13 µM
- TGI [21]: 4.83 µM
- GI50 [22]: 1.91 µM
- TGI [22]: 3.59 µM
- GI50 [23]: 2.4 µM
- TGI [23]: 6.4 µM
- GI50 [24]: 1.62 µM
- TGI [24]: 3.31 µM
- GI50 [25]: 1.71 µM
- TGI [25]: 3.12 µM
- GI50 [26]: 1.53 µM
- TGI [26]: 2.97 µM
- GI50 [27]: 1.63 µM
- TGI [27]: 3.09 µM
- GI50 [28]: 1.86 µM
- TGI [28]: 3.53 µM
- GI50 [29]: 1.5 µM
- TGI [29]: 2.86 µM
- GI50 [30]: 1.88 µM
- TGI [30]: 3.67 µM
- GI50 [31]: 1.65 µM
- TGI [31]: 3.04 µM
- GI50 [32]: 2.02 µM
- TGI [32]: 4.64 µM
- GI50 [33]: 2.14 µM
- TGI [33]: 4.76 µM
- GI50 [34]: 1.6 µM
- TGI [34]: 3.04 µM
- GI50 [35]: 1.91 µM
- TGI [35]: 3.69 µM
- GI50 [36]: 2.03 µM
- TGI [36]: 4.74 µM
- GI50 [37]: 1.98 µM
- TGI [37]: 4.1 µM
- GI50 [38]: 1.72 µM
- TGI [38]: 3.34 µM
- GI50 [39]: 1.8 µM
- TGI [39]: 3.53 µM
- GI50 [40]: 1.71 µM
- TGI [40]: 3.15 µM
- GI50 [41]: 2.16 µM
- TGI [41]: 4.14 µM
- GI50 [42]: 2.54 µM
- TGI [42]: 7.06 µM
- GI50 [43]: 1.77 µM
- TGI [43]: 3.33 µM
- GI50 [44]: 1.59 µM
- TGI [44]: 2.96 µM
- GI50 [45]: 3.23 µM
- TGI [45]: 9.76 µM
- GI50 [46]: 1.85 µM
- TGI [46]: 4.38 µM
- GI50 [47]: 1.75 µM
- TGI [47]: 4.41 µM
- GI50 [48]: 1.65 µM
- TGI [48]: 3.03 µM
- GI50 [49]: 1.96 µM
- TGI [49]: 4.21 µM
- GI50 [50]: 1.77 µM
- TGI [50]: 3.16 µM
- GI50 [51]: 2.25 µM
- TGI [51]: 5.3 µM
- GI50 [52]: 1.9 µM
- TGI [52]: 5.37 µM
- GI50 [53]: 2.1 µM
- TGI [53]: 5.25 µM
- GI50 [54]: 1.68 µM
- TGI [54]: 3.51 µM
- GI50 [55]: 1.83 µM
- TGI [55]: 4.31 µM
- GI50 [56]: 1.76 µM
- TGI [56]: 3.23 µM

From PubChem BioAssay (NCI)
